Test results reported in patent publication US20110059869A1, “Method for Increasing Enzymatic Reactivity” (RIKEN, priority 2008, published 2011).

Key:
Assay type in all cases: biochemical
[1] = test system: DNA polymerase; experiment: Solexa sequencing system, cluster amplification reaction on DNA-immobilized chip; conditions: for num of CAGE tag / num of sequence read: trehalose 0.6 M in cluster amplification
Method: The Solexa sequencing system incorporates the steps of adsorbing, immobilizing, and amplifying a DNA template on a flat chip. An examination was conducted to see how the sequence analysis level would change due to the addition of trehalose in the template amplification reaction of the Solexa sequencing system.
In the process of the Solexa sequencing system, attention was focused on the cluster amplification reaction conducted on a DNA-immobilized chip. In this reaction, DNA immobilized on the chip was amplified with DNA polymerase to obtain identical fragments referred to as a cluster (Scheme 9). Amplification was conducted by adding trehalose to the reaction solution to a final concentration of 0.6 M, and a comparison was made with the results obtained when no trehalose was added (FIG. 10). The sample employed here was a 27 by DNA fragment that had been prepared by the CAGE method (obtained by cleaving just 27 by off of the 5′ end of cDNA).
In the same manner as in 10 above, trehalose was added to a final concentration of 0.3 M to a reaction solution and amplification was conducted in a Solexa sequencing system. The results were compared to those obtained when no trehalose was added. The samples employed, prepared by the CAGE method (obtained by cleaving just 27 by off the 5′ end of the cDNA), were different 27 by DNA fragments than those in 10 above.

[2] = test system: restriction enzyme PstI; experiment: PstI cleavage of DNA fragments I, II, III in a uniform liquid phase system; conditions: 0.6 M trehalose present or not, three hours at 37° C.
Method: In the same manner as in 7 above, the three biotin-labeled DNA fractions I, II, and III (Seq. ID Nos. 4 to 6) were each cleaved at the restriction enzyme PstI site and the DNA fragments of various sizes that were released were detected. Two types of reaction solution (1× PstI buffer, 1× BSA, restriction enzyme 40 units) were prepared: a trehalose (+) system with a final D(+)-trehalose concentration of 0.6 M, and a trehalose (−) system to which no trehalose was added. Each of the reaction solutions was admixed and reacted for three hours at 37° C. Cleavage was conducted with restriction enzyme. The DNA fragments of various sizes that were released were reacted with proteinase K, treated with phenol chloroform, and precipitated from ethanol. The precipitate of DNA fragments obtained was dissolved in 1× TE (pH 7.5) and analyzed with Bioanalyzer DNA 1000 assay (Agilent Technologies) (FIGS. 15 and 16).

[3] = test system: DNA polymerase; experiment: 454 sequencing system, emulsion PCR on beads
Method: In the 454 sequencing system (Scheme 10), a DNA template was adsorbed onto spherical beads, immobilized, and subjected to enveloped amplification in a water-in-oil emulsion (emulsion PCR). Accordingly, the change in the sequencing analysis level when trehalose was added in emulsion PCR was examined.
In emulsion PCR, DNA is bonded by complementarily interaction with oligoprimer immobilized on beads and enveloped in a water-in-oil emulsion to form microreactors each comprised of a single bead and a single DNA fragment. An amplification reaction based on the DNA polymerase results in the amplification of each DNA fragment into several million copies per bead. Trehalose was added to a final concentration of 0.6 M to the reaction solution and the amplification reaction was conducted to examine the effect on the sequence analysis results (Scheme 11).
The samples employed were DNA fragments that had been obtained by PCR amplification of cDNA obtained by reverse transcription of short RNA (FIG. 11). The results obtained by this reaction are shown in FIGS. 12, 13, and 14, as well as in Table 2.
In the 454 sequencing system described in 11 above, trehalose was added to a final concentration of […] to the reaction solution, an amplification reaction was conducted, and the effect on the level of sequencing was examined.

[4] = test system: enzyme reaction solution in a Genome Analyzer system; experiment: Sequencing reaction in a Solexa sequencing system (Genome Analyzer), PhiX control; conditions: trehalose 0.15 M, 0.3 M
Method: D(+)-trehalose was added to the enzyme reaction solution in a Genome Analyzer system (GAI) and the results were measured. The experiment was conducted with the three D(+)-trehalose final concentrations of 0.15 M, 0.3 M, and 0.51 M. The ratio of the reduction in the average value obtained by dividing the fluorescence intensity calculated for each cycle by the number of clusters was employed for comparison.
The D(+)-trehalose employed was D(+)-trehalose (90208 BioChemika, ≧99.5% (HPLC) (Fluka). A 36-cycle Illumina Sequencing Kit (FC-204-2036) was employed for sequencing with a Genome Analyzer (Illumina). The sample employed was PhiX control (CT-901-1001).
The IMX36 (42 mL) in box 2 of the SBS Kit contained in the 36-Cycle SBS Reagent Kit v2 (IIlumina catalog #FC-204-2036) was melted, after which D(+)-trehalose was added in the quantities indicated in Table 3.
Following the addition, the mixture was shielded from light and gently mixed with top to bottom inversion for 10 minutes at room temperature. Once the dissolution had been visually confirmed, the mixture was passed through a filter (with a filter pore system of 0.22 micrometers). Precisely the required 42 mL was collected from the mixed solution following filtration. Subsequently, the operations specified in the manufacturer's protocol were conducted.

[5] = 0.3 M trehalose in cluster amplification vs none
[6] = 0.3 M trehalose in emulsion PCR vs none
[7] = 0.6 M trehalose in emulsion PCR
[8] = trehalose 0.6 M in emulsion PCR, Region 2

OC[C@H]1O[C@H](O[C@H]2O[C@H](CO)[C@@H](O)[C@H](O)[C@H]2O)[C@H](O)[C@@H](O)[C@@H]1O [trehalose, D(+)-trehalose]
fluorescence intensity of each base in the CAGE samples [1, 5]: higher level of fluorescence intensity | sequence level [1, 5]: increased | length of the sequence that was determined ([1]; 0.6 M trehalose vs none): increased | regions prepared by the CAGE method (CAGE tag) among DNA fragments analyzed ([1]; 0.6 M trehalose vs none): more regions prepared by the CAGE method (the CAGE tag) were contained | fluorescence intensity of each base ([1]; 0.6 M trehalose, data not shown): strongly displayed | num of CAGE tag ([1]; region s1): 196840 | num of sequence read ([1]; region s1): 252820 | num of CAGE tag ([1]; region s2): 421412 | num of sequence read ([1]; region s2): 523387 | num of CAGE tag ([1]; region s3): 540268 | num of sequence read ([1]; region s3): 648786 | num of CAGE tag ([1]; region s5): 317440 | num of sequence read ([1]; region s5): 392534 | num of CAGE tag ([1]; region s6): 627739 | num of sequence read ([1]; region s6): 728614 | num of CAGE tag ([1]; region s7): 798438 | num of sequence read ([1]; region s7): 904101 | num of CAGE tag ([1]; total of regions): 2902137 | num of sequence read ([1]; total of regions): 3450242 | quantity of the released DNA fragments recovered [2]: no change | long fragments (sequence length) [3, 6]: increase in long fragments | number of sequences [3, 6]: increased the number of sequences | short fragments (sequence length) [3, 6]: reduction in short fragments | DNA amplification wells ([3]; 0.6 M trehalose (+) compared to trehalose (−)): increasing the DNA amplification wells | number of sequences and size of the regions that were decoded ([3]; 0.6 M trehalose (+) relative to trehalose (−)): increasing the number of sequences and the size of the regions that were decoded | number of sequences read in sample DNA, increase relative to no trehalose [3, 7]: about 1.6 fold | target regions contained in DNA fragments (tags) analyzed [3, 7]: more target regions were contained | Keypass Wells [3, 8]: 341,546 | Passed Filter Wells [3, 8]: 207,398 | Raw Wells [3, 8]: 364,898 | difference in rate of reduction in fluorescence intensity, trehalose (+) vs trehalose (−) ([4]; 35th cycle, 0.51 M, PhiX control): ≥ 20% | PhiX control mapping rate ([4]; 0.51 M relative to trehalose (−)): overall significant difference
